In patent US20250235429A1, “TREATMENT OF DISEASES VIA ADMINISTRATION OF BUNTANETAP AND AN ANTIDIABETIC AGENT” (ANNOVIS BIO, INC., priority 2024, published 2025):
Marks after values point to notes of the source that are not given here.

How the values were obtained:
[1] = tested on: human SNCAA53T tg mouse model of PD; details: cited from earlier work
Huntingtin Protein = details: through Translational Suppression; cited from earlier work
APP/PS1 transgenic mice [2] = test: Contextual fear conditioning (FC), associative memory; format: in vivo; details: Buntanetap 1 mg/Kg and/or dulaglutide 0.1 mg/Kg
Method: (§1) Animals: Heterozygous double transgenic mice expressing both human APP (K670N:M671L) and human PS1 (M146L) (line 6.2) and their wild-type non-transgenic littermates, both males and females, were used for these experiments. They were obtained by a breeding colony maintained at the animal facility of Columbia University. They were genotyped through PCR on tail samples. Animals were injected i.p. from the age of […] for 1 month prior to starting behavioral assessment which lasted for 2 weeks during which treatment continued. Behavioral assessment examined spatial and associative memory. Finally, mice were sacrificed for electrophysiological assessment of synaptic function.
Mice were coded to blind investigators with respect to genotype and treatment. Results were expressed with Standard Error of the Mean (SEM). […] Results were analyzed by ANOVA analysis with post-hoc correction with the combination or genotype as main effect. […]
The combination effect on associative memory was assessed through fear conditioning (FC). […] Freezing behavior, defined as the absence of movements except for that needed for breathing, was scored using Noldus software. Contextual fear learning, a type of memory for which hippocampal function is indispensable, was evaluated 24 hrs after training by measuring freezing responses for 5 min in the same chamber where the mice have been trained. […]

[3] = tested on: fully differentiated Down syndrome nerve cells; details: cited from earlier work
[4] = tested on: patients with mild to moderate AD; test: Phase II/III dose-ranging study of buntanetap in mild to moderate AD (ADAS-Cog 11); format: in vivo, human
Method: A randomized, double-blind, placebo-controlled Phase II/III study trial investigating the efficacy, safety, and tolerability of buntanetap in patients with mild to moderate AD was conducted. This was a dose-ranging study where patients received either one of three doses of buntanetap (7.5 mg, 15 mg, or 30 mg) or placebo on top of their standard of care for 12 weeks. In this study, over 700 patients were screened, a total of 353 patients were enrolled, and 325 patients completed the study across 54 sites in the US. The study included mild to moderate AD patients whose Mini Mental State Examination (MMSE) scores at baseline ranged from 14 to 24. (www.clinicaltrials.gov (NCT05686044)).
Beyond safety, the trial assessed the changes in two co-primary endpoints: Alzheimer's Disease Assessment Scale-Cognitive Subscale 11 (ADAS-Cog 11) and Alzheimer's Disease Cooperative Study Clinician's Global Impression of Change (ADCS-CGIC), which assess cognition and activities of daily living. The study monitored for safety and collected plasma to measure several biomarkers to assess the disease state, potential disease progression, and treatment effects.

APP/PS1 transgenic mice [5] = test: 2-day radial arm water maze (RAWM), spatial memory; format: in vivo
Method: as §1
Mice were coded to blind investigators with respect to genotype and treatment. Results were expressed with Standard Error of the Mean (SEM). Level of significance was set for p<0.05. Results were analyzed by ANOVA analysis with post-hoc correction with the combination or genotype as main effect. Experiments were designed in a balanced fashion, and mice were trained and tested at each of the different conditions in 3 or 4 separate experiments.
Mice were i.p. injected with the drug from the age of 8 weeks prior to plaque appearance until behavioral assessment that started at 12 weeks of age and lasted for 2 weeks.
Spatial memory was studied with the 2-day radial arm water maze (RAWM) test. The task is a hybrid of the Morris Water Maze (MWM) and the radial arm land maze. The motivation for the animals is immersion in water. The mouse needs to swim in 6 alleys (arms) radiating from a central area until it finds a hidden (submerged) platform at the end of one of the arms, based on visual cues placed in the room. In the old RAWM version of the task, the goal arm varies from day to day, requiring 21 days of training in wild-type mice to reach the learning criterion. In the new version of the task, the goal arm is kept constant for all trials, with a different start arm on successive trials, such that the learning criterion will be reached in 2 days. The first day of the protocol was a training day. Mice were trained to identify the platform location by alternating between a visible and a hidden platform in a goal arm. The final 3 trials on day 1 and all 15 trials on day 2 used a hidden escape platform to force mice to use spatial cues to identify the location of the goal arm. To avoid learning limitations imposed by exhausting practice and to avoid fatigue that may result from consecutive trials, spaced practice training was established by running the mice in cohorts of 4 and alternating different cohorts through the 15 training trials over 3 hours testing periods each day. On day 1, a visible platform was laced in a goal location. Mouse 1 of cohort 1 was gently placed in the pool near the perimeter of the wall of the first start arm (specified on a score sheet) and facing the center of the pool. The number of incorrect arm entries (entries in arms with no platform) was counted. If the animal enters the incorrect arm it was gently pulled back to the start arm. Each trial lasted up to 1 min. Failure to select an arm after 15 sec was counted as an error and the mouse was returned to the start arm. After 1 min, if the platform had not been located, the mouse was guided gently through the water by placing a hand behind it to direct it towards the platform. The mouse rested on the platform for 15 sec. After completing the trial, the mouse was removed from the pool, gently towel dried and placed back into its cage under a heat lamp. The goal platform location was different for each mouse. […] After each mouse from cohort 1 completed six alternating trials between visible and hidden platforms, the mice were left to rest under a heating source, and mice from the second cohort were tested in the same way.

CN1CC[C@]2(C)c3cc(OC(=O)Nc4ccccc4)ccc3N(C)C12 (stereo partly drawn) [Buntanetap, (3aR)-1,3a,8-trimethyl-1,2,3,3a,8,8a-hexahydropyrrolo[2,3-b]indol-5-yl phenylcarbamate]
colonic motility [1]: Restored | levels of Huntingtin Protein (Huntingtin Protein): reduced | impairment of associative memory measured through contextual fear conditioning (FC) (APP/PS1 transgenic mice [2]): did not ameliorate | anterograde and retrograde vesicle transport [3]: Normalized | Non-Responders (Number) ([4]; 7.5 mg): 5 | Non-Responders (Percentage) ([4]; 7.5 mg): (26.32%) | Responders (Number) ([4]; 7.5 mg): 14 | Responders (Percentage) ([4]; 7.5 mg): (73.68%)** | Non-Responders (Number) ([4]; 15 mg): 7 | Non-Responders (Percentage) ([4]; 15 mg): (28.00%) | Responders (Number) ([4]; 15 mg): 18 | Responders (Percentage) ([4]; 15 mg): (72.00%)** | Non-Responders (Number) ([4]; 30 mg): 3 | Non-Responders (Percentage) ([4]; 30 mg): (12.50%) | Responders (Number) ([4]; 30 mg): 21 | Responders (Percentage) ([4]; 30 mg): (87.50%)*** | difference in the proportion of participants who improved relative to placebo ([4]; 30 mg group): three-fold | improvement in ADAS-Cog 11 scores in each treatment dose relative to placebo ([4]; patients with mild AD, 7.5, 15, 30 mg, 12 weeks): significantly higher improvement | improvement in cognition ([4]; population with confirmed early AD (FIG. 2B)): dose-dependent improvement | % Improvement (RAWM errors) (APP/PS1 transgenic mice [5]; APP/PS1, Buntanetap 1 mg/kg): 29.4% | Meran Number of Errors (RAWM) (APP/PS1 transgenic mice [5]; APP/PS1, Buntanetap 1 mg/kg): 2.8 | Meran Number of Errors (RAWM) (APP/PS1 transgenic mice [5]; APP/PS1, Buntanetap 10 mg/kg): 1.6 | % Improvement (RAWM errors) (APP/PS1 transgenic mice [5]; APP/PS1, Buntanetap 10 mg/kg, 100% = difference of 1.7 errors): 100% | impairment of short-term spatial memory measured through the 2-day radial arm water maze (RAWM) (APP/PS1 transgenic mice [5]; APP/PS1 mice, Buntanetap 1 mg/Kg and/or dulaglutide 0.1 mg/Kg): did not ameliorate
